Laboratory results published in patent US9597324B2, “Treatment of CNS disorders associated with mutations in genes encoding lysosomal enzymes” (Amicus Therapeutics, Inc., priority 2005, dated 2017).

Columns and labels:
human L444P mutated Gba = test: Gba activity in brain and organs of L444P transgenic mice treated with chaperone in drinking water (incl. washout study); type: in vivo, mouse; conditions: for Gba activity in brain: about 10 mg/kg/day in drinking water
Experimental: L444P is a mutation associated with Types 2 and 3 Gaucher disease. […] Concomitant glucosylceramide synthase disruption is necessary, since previously made L444P transgenic mice died within 3 days of birth due to impaired permeability barrier function in the epidermis.
In addition, mice in a “washout” period of 2 weeks of non-chaperone treatment following 4 weeks of treatment were also evaluated for reversion of surrogate markers back to levels seen in untreated controls.
Mice were administered isofagomine or C-benzyl-isofagomine in their drinking water, ad libitum. Estimated daily dosage based on the volume of water consumed is about 10 mg/kg/day.
[…] Brian tissue is freshly harvested (blood washed away with PBS), or thawed from frozen stock. Tissue is minced tissue and homogenized on ice in 200-500 μl McIlvaine (MI) buffer (0.25% sodium taurocholate, 0.1% Triton x-100 in 0.1M citrate and 0.2M phosphate buffer, pH 5.2), and centrifuged at 10,000×g. The supernatant is collected and may be frozen at this step.
About 1-10 μl of supernatant from the brain tissue homogenates is added to a clear 96-well plate for the Micro BCA Protein Assay (Pierce, cat #23235) to quantitate the amount of total protein according to the manufacturer's protocol. As a negative control, another 10 μl is added to a black plate, mixed with 10 μl of 2.5 mM CBE (2.7 mg Conduritol B Epoxide in 6.7 ml buffer), an inhibitor of Gba activity, and left at room temperature (RT) for 30 minutes. 50 μl of 3 mM 4-methal Umbelliferal beta-D-glucoside (4-MU-beta-D-glucoside; made fresh, powder is dissolved in 0.2 ml of DMSO, then q.s. to proper volume with MI buffer), a Gba substrate, is then added, and the black plate is further incubated at 37° C. for 1 hr. After incubation, 10 μl of supernatant is added to a second black plate, mixed with 10 μl of MI buffer and 50 μl […] of Gba substrate 4-MU-beta-D-glucoside, and incubated at 37° C. for 1 hr. The reaction is then stopped by adding 70 μl 0.2 M glycine, pH 10.8. The plate is read in a plate-reader (Victor2 1420 multilabel counter; Wallac) at F460.
Relative […] is determined by the following equation: F460 without CBE−F460 with CBE)/(A550 sample−A550 buffer)
F460 reading is converted into nmole 4-MU based on 4-MU standard curve and A550 is converted into mg of protein based on the protein standard curve. One unit of Gba activity is defined as nmole of 4-MU released in one hour.
To determine if and in what time frame the effects of drinking water dosed AT2101 on L444P mice regress after cessation of the treatment, a washout study was performed. Nine male 3 month old L444P mice were dosed at about 10 mg/kg/day for 4 weeks with an equal number of mice untreated as a control.

[1] = test system: N370S Gaucher fibroblasts (DMN89.15); test: Gba / LAMP-1 lysosomal staining (confocal microscopy) in N370S Gaucher fibroblasts; type: cell-based, human; conditions: for Gba staining localization: N370S Gaucher fibroblasts; for Amount of Gba in the lysosomes: dual Gba/LAMP-1 staining vs untreated control; for Lysosome staining pattern for Gba and LAMP-1: dual staining vs untreated control
Experimental: N370S fibroblasts (DMN89.15) were cultured in DMEM with 10% FBS and 1% penn/strep at 37 C with […]. Wild-type fibroblast cell line CRL-2097 form a healthy individual was used as a control. Cells were sub-cultured from 10 cm plates into 12-well plates with cover slips. Cells from one confluent 10 cm plate were diluted in 38 ml of culture medium.
C-benzyl-isofagomine-control (secondary antibody only); untreated; 0.03 μM; 0.1 μM; 0.3 μM; 1.0 μM; 3.0 μM; and 10.0 μM.
Isofagomine-control (secondary antibody only); untreated; 10 μM; 30 μM; 100 μM; 1 nM; 3 nM; and 10 nM.
Cells were cultured for a total of about 6 days.
Cells were washed for 5 minutes in PBS, fixed for 15 minutes in 3.7% paraformaldahyde (in PBS), washed again for 5 minutes in PBS, and permeabilized with 0.5% saponin for 5 minutes. Cells were then washed with PBS containing 0.1% saponin, treated for 5 minutes with fresh 0.1% sodium borohydride/0.01% saponin, and washed 3 times with PBS with 0.1% saponin/1% BSA for 5 minutes each.
Cells were incubated for 1 h with 500 μl of primary anti-Gba (1:200) or anti-LAMP-1 (1:200; BD Pharmingen, Cat. No. 555798) antibody solution in PBS with 1% BSA. Lysosomal staining using LysoTracker® Red (Cambrex, East Rutherford, N.J.) was performed according to the manufacturer's instructions. Following incubation, cells were washed 3 times in 1% BSA containing 0.1% saponin in PBS, followed by incubation with the secondary antibody solution (1:500; anti-rabbit […] for anti-Gba and anti-mouse IgG AlexaFluor594 for anti-LAMP-1). Cells were mounted onto coverslips, sealed, and immediately viewed.
Cells were visualized using a confocal microscope. The red and green channel gains were set to 6 and the laser power was optimized using the intensity window, and were not adjusted for the rest of the experiment. All slides were analyzed at the same sitting and all images were gathered without any zoom using the 20× and 60× lens, the small pinhole, optimal pixel size, an average of 2 scans, and red and green channels were acquired simultaneously as in all previous experiments.

[2] = test system: lymphoblasts established from Fabry patients with R301Q or Q279E mutations; conditions: cited from earlier work
[3] = biological target: T1, human mutant α-Gal A (R301Q) (Homo sapiens, UniProt P06280, R301Q); conditions: neutral pH; cited from earlier work
T1 sequence (P06280 32-429 R301Q): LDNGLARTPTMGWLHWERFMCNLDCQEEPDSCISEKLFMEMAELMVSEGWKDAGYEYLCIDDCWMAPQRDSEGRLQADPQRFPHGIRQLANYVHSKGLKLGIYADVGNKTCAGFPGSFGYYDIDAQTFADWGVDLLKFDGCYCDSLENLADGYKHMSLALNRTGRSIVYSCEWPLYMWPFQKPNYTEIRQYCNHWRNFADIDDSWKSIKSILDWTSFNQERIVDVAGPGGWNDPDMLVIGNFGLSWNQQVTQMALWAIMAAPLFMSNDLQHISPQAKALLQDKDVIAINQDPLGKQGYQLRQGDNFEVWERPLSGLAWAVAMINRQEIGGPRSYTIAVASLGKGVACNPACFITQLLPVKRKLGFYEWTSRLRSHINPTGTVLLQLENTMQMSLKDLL

mutant (R301Q) α-Gal A = biological target: T2, mutant (R301Q) α-Gal A (Homo sapiens, UniProt P06280, R301Q); conditions: oral administration, transgenic mice overexpressing mutant (R301Q) α-Gal A; cited from earlier work
T2 construct: host or cells: major organs of transgenic mice
T2 sequence (P06280 32-429 R301Q): T1 sequence (P06280 32-429 R301Q)

[4] = Detection of IFG in the CSF of treated monkeys; type: in vivo
Gaucher patient cells = conditions: cited from earlier work
[5] = after two weeks of treatment, data not shown
[6] = N370S fibroblasts, 3.0 μl (so in the source)
[7] = N370S fibroblasts, concentration not given

## OCC1C(Cc2ccccc2)NCC(O)[C@@H]1O (stereo partly shown) [C-benzyl-isofagomine]
Human L444P mutated Gba; [5]
  Gba activity in brain (in words): trend toward increased activity
  Gba activity in lung (in words): trend toward increased activity
  Gba activity in spleen (in words): significant increased
Human L444P mutated Gba; after two weeks of treatment, data not shown, listed as AT2206
  Gba activity in brain (in words): trend toward increase
[1]; 3 μM, Gba staining only (FIG. 2N)
  Gba staining localization: localize to lysosomes
[1]; [6]
  Amount of Gba in the lysosomes: increased
  Lysosome staining pattern for Gba and LAMP-1: re-established a normal lysosome punctuate staining pattern

## OC[C@H]1NC[C@H](O)[C@@H](O)[C@H]1O [DGJ, 1-deoxygalactonojirimycin]
[2]
  Mutant enzyme activity in lymphoblasts: enhanced
[3]
  In vitro stability of the mutant enzyme: effectively increased
Mutant (R301Q) α-Gal A
  Enzyme activity in major organs: substantially elevated

## OC[C@H]1CNC[C@@H](O)[C@@H]1O [isofagomine, (3R,4R,5R)-5-(hydroxymethyl)-3,4-piperidinediol]
Human L444P mutated Gba; after 2 weeks of treatment, untreated about 1 U/mg
  Gba activity in brain: about 4.5 U/mg
Human L444P mutated Gba; after 4 weeks of treatment, untreated about 1 U/mg
  Gba activity in brain: about 4.5 U/mg
Human L444P mutated Gba; after 12 weeks of treatment, p<0.001
  Gba activity in brain: about 6 U/mg
Human L444P mutated Gba; after 4 weeks of treatment at 10 mg/kg/day (FIG. 1B)
  Gba activity in brain, washout study (in words): significantly elevated
Human L444P mutated Gba; after as little as two weeks of treatment, persisted through 4-12 weeks (FIG. 1A)
  Gba activity in brain (in words): Significant increase
[1]; 30 μM, Gba staining only (FIG. 2M)
  Gba staining localization: localize to lysosomes
[1]; N370S fibroblasts, 30.0 μM
  Amount of Gba in the lysosomes: increased
  Lysosome staining pattern for Gba and LAMP-1: re-established a normal lysosome punctuate staining pattern
[1]; [7]
  Amount of Gba seen in the lysosome: increased
  Lysosomal staining pattern of the cells: restored a normal lysosomal staining pattern
[4]
  Detection in the CSF following treatment: detected
Gaucher patient cells
  Rescue of Gba: rescue
